From the METLIN SMRT retention time set (Domingo-Almenara et al. 2019)

Assay: gradient 5% acetonitrile 3 min, to 50% in 2 min, to 85% in 15 min, held 3 min, 100 µL/min
Conditions: column: Zorbax Extend-C18 2.1 x 50 mm; eluents: water / acetonitrile, 0.1% formic acid
Procedure, shortened: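 In both positive and negative ionization mode, a quadrupole time-of-flight mass spectrometer coupled to HPLC analyzed pure standards run in mixtures of ~100 molecules. The Zorbax Extend-C18 column (2.1 × 50 mm, 1.8 μm) was operated at 100 μL/min with water and acetonitrile, each containing 0.1% formic acid. The dead volume was 40 μL and the dwell volume 900 μL. Retention time came from adduct peaks that were computationally picked and individually inspected by hand.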

| Structure (SMILES) | RP-LC retention time |
| --- | --- |
| Cc1ccc(Cn2cc(-c3ccncc3)cc2C(=O)NCC2CCCO2)cc1 (centres undefined) | 654 s |
| COc1cc(OC)cc(-c2noc(-c3nnn(Cc4nc(-c5cccc(C)c5)oc4C)c3C)n2)c1 | 1280 s |
| Cc1ccccc1Nc1c(-c2cc(Br)ccc2F)nc2cccc(C)n12 | 814 s |
| COc1cccc(NC(=O)C2CCN(c3nc4ccc(-c5cncnc5)nc4s3)CC2)c1 | 736 s |
| Cc1ccc(-c2noc(Cn3ccn(-c4c(C)cccc4C)c(=O)c3=O)n2)cc1C | 1000 s |
| Cn1nc(C2CCCNC2)n(Cc2ccccc2)c1=O (centres undefined) | 556 s |
| Cc1ccc(-c2noc(C3CCCN3C(=O)CNS(=O)(=O)c3ccc(Cl)cc3)n2)cc1 (centres undefined) | 1030 s |
| CC1=C(c2ccccc2)S(=O)(=O)N=C1N1CCCN(C(=O)c2ccc(F)cc2)CC1 | 805 s |
| COc1ccc(Cl)cc1NS(=O)(=O)c1cn(CC(C)C)c2ncccc12 | 765 s |
| CCCC(=O)Nc1sc2c(c1C(=O)Nc1ccccc1C)CCC2 | 1250 s |
| Cc1ccc(-c2nc(Nc3cccc(Cl)c3)sc2C)cc1 | 1320 s |
| COc1ccc(NS(=O)(=O)c2ccc(-c3nnc(C4CCC4)o3)o2)cc1Cl | 936 s |
| CCc1cc(=O)n(CC(=O)NC2CCCC2)c(N)n1 | 574 s |
| CCCc1noc(-c2ccnc(-n3cnc(C(=O)N4CCCC4)c3)c2)n1 | 789 s |
| COc1ccc(N2CC(c3nc(-c4ccc(C(F)(F)F)cc4)no3)CC2=O)c(OC)c1 (centres undefined) | 1030 s |
| Cc1ccc(NC(=O)N2CCc3nc(-c4ccc(F)cc4)ncc3C2)c(Cl)c1 | 1080 s |
| CC(C)Cc1nc(C2CN(C(=O)c3cnccn3)CC23CCCC3)no1 (centres undefined) | 618 s |
| Cc1ccc(-n2ccc(=O)c(-c3nc(-c4cccc(Cl)c4)no3)n2)cc1 | 1030 s |
| O=C(NCc1ccccc1F)c1ccc(Cn2c(C(F)(F)F)nc3cccnc32)cc1 | 876 s |
| O=C(NCC(c1ccsc1)N1CCc2ccccc2C1)c1cccs1 (centres undefined) | 569 s |
| CCCc1ccc(S(=O)(=O)N2CCc3nc[nH]c3C2)cc1 | 656 s |
| COc1ccc(-c2noc(Cc3nnc(-c4cccc(F)c4)o3)n2)cc1 | 1020 s |

| Structure (SMILES) | RP-LC retention time |
| --- | --- |
| O=C(NCCCn1nc(-c2ccco2)ccc1=O)c1cc(Cl)ccc1Cl | 737 s |
| COc1ccc(OC)c(S(=O)(=O)N2CCCC(C(=O)NCc3ccccc3OC)C2)c1 (centres undefined) | 854 s |
| C=CCN1C[C@H](C)N([C@H](c2ccccc2)c2ccc(C(=O)N(CC)CC)cc2)C[C@H]1C | 702 s |
| COc1ccc(N2C=C(C(=O)N3CCCCC3)S(=O)(=O)c3ccccc32)cc1 | 859 s |
| COCCn1nc(N2CCCC(NS(=O)(=O)c3c(C)nn(C)c3C)C2)ccc1=O (centres undefined) | 622 s |
| CCC(=O)N1CCc2cc(N3CC(C(=O)NCc4cc(F)cc(F)c4)CC3=O)ccc21 (centres undefined) | 734 s |
| O=C(Cn1cnc2nc(N3CCC(C(=O)NC4CC4)CC3)sc2c1=O)Nc1ccc(F)cc1F | 651 s |
| CNc1nc(N2CCCCCC2)nc(-n2cnc(SC)n2)n1 | 685 s |
| CCN(CCCNC(=O)C1CCN(S(=O)(=O)N2CCOCC2)CC1)c1cccc(C)c1 | 623 s |
| CCCNC(=O)C1CCN(c2ccc(SCC(=O)Nc3cccc(C(=O)OCC)c3)nn2)CC1 | 675 s |
| Cc1ccc(Nc2c(-c3ccccc3O)nc3ncccn23)cc1Cl | 738 s |
| CCOC(=O)CC(=O)CSc1nc(-c2ccccc2)ns1 | 993 s |
| Cc1ccc(S(=O)(=O)NCC2CN(CC3CC3)CC23CCCCC3)c(C)c1 (centres undefined) | 767 s |
| Cc1ccc(S(=O)(=O)c2nnn3c2nc(N2CCN(c4ccccn4)CC2)c2ccccc23)cc1 | 711 s |
| O=C(c1nc(Cn2cnc3ccccc3c2=O)no1)N1CCN(Cc2ccc3c(c2)OCO3)CC1 | 691 s |
| CCN(C(=O)c1ccco1)c1nc(-c2ccc(C)cc2)cs1 | 1280 s |
| COCCCNC(=O)Cn1c(=O)n(-c2ccccc2)c2ncccc21 | 650 s |
| CC1CCN(C(=O)CSc2nnc(-c3ccccc3F)o2)CC1 | 901 s |
| CC(C)CN(C1CCOCC1)C1CN(C(=O)Nc2ccccc2)C1 | 594 s |
| COc1ccc(-c2nc(Cc3noc(-c4ccccc4OC)n3)c(C)o2)cc1 | 1070 s |
| COc1ccc2c(CCNc3nc(-c4ccc(C5CCCCC5)cc4)cs3)c[nH]c2c1 | 1250 s |
| CC(=O)N(Cc1nn(C)c2c1CN(S(=O)(=O)c1cc(C)cc(C)c1)CC2)c1ccccc1 | 856 s |
